Test results published in the supplement of paper PMC10307832.

Columns and labels:
Assay in all cases: relative viability (nuclei count vs DMSO), 5 days (fraction); higher = more cells survive
[1] = compound: C1=CC2=NC=CN=C2C=C1/C=C/3\C(=O)NC(=O)S3 + N=C(N)NC(=N)NCCc1ccccc1 [Phenformin] (partner 250 µM)
In short: (§1)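 Lung cancer cell lines in 1536-well plates were dosed by pin tool the day after seeding, either with one drug alone or with a fixed anchor-drug dose plus five library-drug doses (not always all listed) in √10 steps. After 5 days, cells were fixed and their nuclei stained in one step (final 0.05% Triton X-100, 1% formaldehyde, 1 ug/ml Hoechst), then counted on 4× images. Relative viability is the nuclei count in treated wells divided by that in vehicle wells. Values are medians of duplicate plates.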

BGJ398 + Bortezomib = compound: CCN1CCN(c2ccc(Nc3cc(N(C)C(=O)Nc4c(Cl)c(OC)cc(OC)c4Cl)ncn3)cc2)CC1 [BGJ398] + CC(C)C[C@H](NC(=O)[C@H](Cc1ccccc1)NC(=O)c1cnccn1)B(O)O [Bortezomib] (partner 0.002 µM)
In short: as §1

BGJ398 + Lapatinib = compound: CCN1CCN(c2ccc(Nc3cc(N(C)C(=O)Nc4c(Cl)c(OC)cc(OC)c4Cl)ncn3)cc2)CC1 [BGJ398] + CS(=O)(=O)CCNCc1ccc(-c2ccc3ncnc(Nc4ccc(OCc5cccc(F)c5)c(Cl)c4)c3c2)o1 [Lapatinib] (partner 2 µM)
In short: as §1

[2] = compound: C1=CC2=NC=CN=C2C=C1/C=C/3\C(=O)NC(=O)S3 + Cc1cc(Nc2cc(N3CCN(C)CC3)nc(Sc3ccc(NC(=O)C4CC4)cc3)n2)n[nH]1 [Tozasertib] (partner 0.1 µM)
In short: as §1

| Cell Line | relative viability ([1]; first compound 0.02 µM) | relative viability ([1]; first compound 0.06325 µM) | relative viability ([1]; first compound 0.2 µM) | relative viability ([1]; first compound 0.6325 µM) | relative viability ([1]; first compound 2 µM) | relative viability (BGJ398 + Bortezomib; first compound 0.01 µM) | relative viability (BGJ398 + Bortezomib; first compound 0.03162 µM) | relative viability (BGJ398 + Bortezomib; first compound 0.1 µM) | relative viability (BGJ398 + Bortezomib; first compound 0.3162 µM) | relative viability (BGJ398 + Bortezomib; first compound 1 µM) | relative viability (BGJ398 + Lapatinib; first compound 0.01 µM) | relative viability (BGJ398 + Lapatinib; first compound 0.03162 µM) | relative viability (BGJ398 + Lapatinib; first compound 0.1 µM) | relative viability (BGJ398 + Lapatinib; first compound 0.3162 µM) | relative viability (BGJ398 + Lapatinib; first compound 1 µM) | relative viability ([2]; first compound 0.02 µM) | relative viability ([2]; first compound 0.06325 µM) | relative viability ([2]; first compound 0.2 µM) | relative viability ([2]; first compound 0.6325 µM) | relative viability ([2]; first compound 2 µM) |
| --- | --- | --- | --- | --- | --- | --- | --- | --- | --- | --- | --- | --- | --- | --- | --- | --- | --- | --- | --- | --- |
| HARA | 0.451 | 0.384 | 0.395 | 0.428 | 0.422 | 1.15 | 1.05 | 1.13 | 1.08 | 0.978 | 0.67 | 0.531 | 0.472 | 0.362 | 0.217 | 0.0982 | 0.133 | 0.128 | 0.104 | 0.11 |
| IA-LM | – | – | – | – | – | 0.741 | 0.928 | 0.905 | 0.822 | 0.788 | 0.864 | 0.742 | 0.846 | 0.704 | 0.758 | – | – | – | – | – |
| LCLC-103H | 0.325 | 0.322 | 0.351 | 0.354 | 0.25 | 1.15 | 1.02 | 1.07 | 0.963 | 0.875 | – | – | – | – | – | 0.563 | 0.424 | 0.45 | 0.52 | 0.456 |
| LK-2 | 0.615 | 0.603 | 0.488 | 0.368 | 0.195 | – | – | – | – | – | 0.887 | 0.754 | 0.488 | 0.352 | 0.26 | 0.174 | 0.189 | 0.159 | 0.191 | 0.165 |
| NCI-H358 | 0.41 | 0.382 | 0.356 | 0.283 | 0.149 | – | – | – | – | – | 0.452 | 0.43 | 0.442 | 0.386 | 0.519 | 0.1 | 0.11 | 0.0984 | 0.127 | 0.0886 |
| NCI-H441 | 0.856 | 1.06 | 0.84 | 0.755 | 0.327 | 0.398 | 0.991 | 0.861 | 0.4 | 0.472 | – | – | – | – | – | 0.661 | 0.828 | 0.743 | 0.62 | 0.366 |
| NCI-H522 | 0.65 | 0.608 | 0.666 | 0.564 | 0.579 | – | – | – | – | – | – | – | – | – | – | 0.64 | 0.504 | 0.641 | 0.542 | 0.549 |
| NCI-H1299 | – | – | – | – | – | 0.982 | 1.06 | 1.02 | 1.01 | 1.01 | 0.956 | 0.956 | 0.943 | 0.968 | 0.972 | – | – | – | – | – |
| NCI-H1395 | 0.449 | 0.449 | 0.47 | 0.416 | 0.483 | – | – | – | – | – | 1.1 | 1.75 | 0.823 | 0.569 | 0.476 | 0.725 | 0.794 | 0.777 | 0.729 | 0.809 |
| NCI-H1563 | 0.667 | 0.674 | 0.657 | 0.648 | 0.663 | 0.931 | 0.802 | 0.778 | 0.674 | 0.71 | 0.926 | 1.01 | 0.761 | 0.721 | 0.669 | – | – | – | – | – |
| NCI-H1623 | 0.553 | 0.675 | 0.622 | 0.608 | 0.494 | – | – | – | – | – | – | – | – | – | – | 0.405 | 0.413 | 0.473 | 0.403 | 0.38 |
| NCI-H1648 | – | – | – | – | – | – | – | – | – | – | – | – | – | – | – | 0.408 | – | 0.629 | 0.404 | 0.416 |
| NCI-H1703 | – | – | – | – | – | 0.451 | 0.467 | 0.253 | 0.261 | 0.457 | 0.988 | 1.32 | 1.04 | 1.05 | 1.36 | – | – | – | – | – |
| NCI-H1792 | 0.351 | 0.177 | 0.465 | 0.341 | 0.113 | 0.936 | 0.963 | 1.11 | 0.926 | 0.942 | 0.928 | 0.874 | 0.999 | 0.909 | 0.756 | – | – | – | – | – |
| NCI-H1793 | 0.416 | 0.32 | 0.452 | 0.334 | 0.322 | – | – | – | – | – | 0.652 | – | 0.564 | 0.402 | 0.427 | 0.392 | 0.273 | 0.38 | 0.324 | 0.281 |
| NCI-H1944 | 0.187 | 0.188 | 0.199 | 0.204 | 0.155 | – | – | – | – | – | 0.784 | 0.813 | 0.84 | 0.78 | 0.603 | 0.254 | 0.206 | 0.261 | 0.239 | 0.238 |
| NCI-H2170 | 0.425 | 0.375 | 0.441 | 0.426 | 0.423 | – | – | – | – | – | 0.289 | 0.197 | 0.256 | 0.268 | 0.264 | 0.6 | 0.697 | 0.689 | 0.734 | 0.795 |
| NCI-H2342 | 0.486 | 0.577 | 0.739 | 0.565 | 0.526 | – | – | – | – | – | – | – | – | – | – | 0.438 | 0.561 | 0.688 | 0.465 | 0.469 |
| SK-MES-1 | 0.623 | 0.697 | 0.713 | 0.626 | 0.645 | – | – | – | – | – | 0.414 | 0.44 | 0.448 | 0.396 | 0.376 | 0.894 | 0.884 | 0.998 | 0.965 | 0.934 |
| SW 900 | 0.675 | 0.601 | 0.702 | 0.4 | 0.551 | – | – | – | – | – | – | – | – | – | – | 0.453 | 0.607 | 0.702 | 0.545 | 0.566 |
